# Source: a melting point compilation (Tetko et al.; mined from patent text by program, amines drawn as free bases though some values may be those of a salt)
row,SMILES,melting point [°C]
1,CCCC(O)c1cc(C)cc(C)c1C=CC1OCC(C)(C)CO1 (stereo not drawn),56 to 59
2,CC(=O)N[C@@H](C)COC1CCN(c2nc3ccc(OCC(F)(F)F)cc3s2)CC1,129 to 131
3,CC(C)NS(=O)(=O)c1cc(-c2ncnc(C(F)F)c2Cl)c(F)cc1Cl,172 to 175
4,CN1C(=NCCCCn2ccnc2)c2cccc3cccc1c23,126 to 127
5,CCOC(=O)c1cnc(-c2ccccc2OC(C)CC)[nH]c1=O (stereo not drawn),134 to 136
6,O=C(O[C@@H]1CC[C@H]1Br)c1ccccc1 (relative stereo),38 to 40
7,OCCn1nnnc1S,135 to 137
8,O=C1Nc2ccc(Cl)cc2C2(c3ccccc3)NCCCN12 (stereo not drawn),275 to 276
9,CC(C)(C(=O)O)C1OCCc2ccccc21 (stereo not drawn),110 to 116
10,CC(=O)OC1CSC(Oc2cncc(S(=O)(=O)c3ccccc3)c2)C(OC(C)=O)C1OC(C)=O (stereo not drawn),97 to 99
11,CC(C)N1CC2CC(CN(C(=O)Cc3ccc([N+](=O)[O-])cc3)C2)C1,93 to 94
12,CCC(=S)N(c1c(C)cccc1C)C(C)C(C)=S (stereo not drawn),88 to 92
13,CC(=O)NC1C(C)(C)c2ccc(CCN3CCN(c4nsc5ccccc45)CC3)cc2C1(C)C (stereo not drawn),75 to 80
14,CCCCc1nc2c(N)nc3cccnc3c2n1CCNC(=O)c1c(C)noc1C,188 to 189
15,CCNc1cccc(NC(=O)C(=O)OCC)c1C#N,99 to 102
16,Cc1ccc2c(=O)c(C(=O)O)cn(N)c2n1,239 to 240
17,COC(=O)C1C=CCN2C(=O)C(CCSC(C)=O)(Cc3ccccc3)C(=O)N12 (stereo not drawn),161 to 162
18,C#CC1(O)CCC2C3CCC4=CC(=O)CCC4C3C(=CF)CC21C (stereo not drawn),188 to 190
19,O=C1c2ccccc2C(=O)N1OCCBr,98
20,CCCc1nn(-c2ccc(C(F)(F)F)cn2)cc1CCCOc1c(CC)cnn1CC(=O)O,135 to 136
21,COc1nc(C)c(N)cc1C,39.8 to 41
22,CCc1cnc(CSc2cnc(NC(=O)c3ccccc3)s2)o1,122 to 123
23,CC(O)C1CCC2C3CCC4=CC(O)CCC4(C)C3CCC12C (stereo not drawn),169 to 170
24,CCOC(=O)N1CCC(NC(=O)c2ccc(Cl)cc2Cl)C12CCCCC2 (stereo not drawn),143 to 144
25,CCC(C#N)c1nsc2ccc(-n3c(=O)cc(C(F)(F)F)n(C)c3=O)cc12 (stereo not drawn),107 to 109
26,CCCCc1nc2c(N)nc3ccccc3c2n1OC,197 to 199
27,Cc1ccc(C)c2c(OCCNC(=O)OC(C)(C)C)noc12,78 to 79
28,O=C1CC=CC(C(=O)O)C1 (stereo not drawn),98 to 101

row,SMILES,melting point [°C]
1,Nc1nc(N2CCNCC2)c2nc(-c3ccccc3)c(N)nc2n1,150 to 155
2,CC(C)OP(=O)(/C=C/C(CO)Cn1cnc2c(N)ncnc21)OC(C)C (stereo not drawn),130
3,CCN(CC)C(=O)c1ccc(C(=C2CCNCC2)c2cccc3ccccc23)cc1,80 to 85
4,CC(C)C1(C)NC(c2ccccc2C(=O)O)=NC1=O (stereo not drawn),162 to 163
5,Cc1ccccc1CNc1ncnc2c1ncn2C1OC(CO)C(O)C1O (stereo not drawn),162 to 164
6,COc1cc2c(cc1OC)C(=O)CCCO2,87 to 88
7,CC1(C)C=C(c2cccnc2)c2cc(C#N)ccc2OC1,150
8,CCc1cccc(CC)c1NC(=O)c1c2n(c(C)c(Br)c1=O)CCCC2,208 to 210
9,Cc1nc2c(C=Cc3ccccc3)cccn2c1N=O,158 to 160
10,Cc1cc2c(cc1O)C(C)(C)CC(C)(c1cc(O)c(C)cc1O)O2 (stereo not drawn),190
11,COC(=O)C1(C(=O)OC)Cc2cc(Br)ccc2N1,113 to 155
12,CCC(=O)Nc1n[nH]c(C(C)(C)C)c1Cl,136 to 137
13,CSC1NC(=O)N(c2ccc(Cl)cc2)C(=O)N1N=C(C)C (stereo not drawn),142 to 144
14,COc1nc(OC)nc(OC(C(=O)OCc2ccccc2)C(C)(C)C)n1 (stereo not drawn),63 to 66
15,OCCSc1cccc2nccn12,99 to 100
16,O=C1C2=C(CCCC2)C(=O)N1c1c(F)cc(Cl)c2c1CC(CO)O2 (stereo not drawn),193 to 195
17,COc1c(F)c(C)c(F)c(OC)c1CO,80 to 81
18,CC(C)(C)OC(=O)CC[C@@H](NC(=O)OCc1ccccc1)C(N)=O,138 to 140
19,N#Cc1ccccc1OCC1CN=C(N)O1 (stereo not drawn),146
20,NNC(=O)c1cnc2n(c1=O)CCCCC2,184 to 186
21,O=C(CC1CCCCCC1=O)c1ccc([N+](=O)[O-])cc1 (stereo not drawn),79 to 84
22,NS(=O)(=O)Oc1ccc(Cl)c(Cl)c1,121 to 123
23,N[C@H]1Cc2ccccc2[C@@H]1O,104 to 106
24,CC(=O)c1ccn2c(C)c(C)nc2c1N,195 to 197
25,CCCCCCCCCCNC(=O)[C@@H]1C[C@H]1c1ccc([N+](=O)[O-])cc1 (relative stereo),127 to 129
26,Cc1c(Cc2cccnc2)c2ccccc2n1CCc1nnn[nH]1,173
27,Nc1nc2c(c(=O)[nH]1)S[C@H](CCc1ccc(C(=O)O)s1)CN2,283 to 285

# Continued, values first:
row,melting point [°C],SMILES
1,208 to 210,CN(C)c1ccc(-n2c(N)nc3ccccc32)cc1-c1ccco1
2,97 to 98,CCCCC1CCc2c(OCc3ccc4ccccc4n3)cccc2C1=O (stereo not drawn)
3,196,CCCCc1cnc(-c2cnc(-c3ccc(F)cc3)nc2)nc1
4,170 to 172,Cc1c(NC(=O)CC(C)(C)C)c(C)c2c(c1-c1cccc(N)c1)OCC2c1ccc(C(C)C)cc1 (stereo not drawn)
5,136,CCCCC(CC)C(=O)Nc1ccc2cnn(Cc3ccc(C(=O)OC)cc3OC)c2c1 (stereo not drawn)
6,69 to 71,CCCCOCCN(CCCCCSc1nc(-c2ccccc2)c(-c2ccccc2)[nH]1)C(=O)Nc1ccc(F)cc1F
7,223 to 224,Cc1ccc(NC(=O)N2CCc3cc(S(=O)(=O)N4CC(c5ccccc5)NC4=O)ccc32)cc1 (stereo not drawn)
8,154 to 156,COc1ccc(-c2ccnn2-c2ccc(N3C[C@H](CNC(C)=O)OC3=O)cc2F)cc1OC
9,138 to 141,COc1ccc(-c2nc(CNC(C)=O)sc2-c2ccc(OC)cc2)cc1
10,240 to 242,Oc1ccc2c(c1)COc1c-2cc2ccc(O)cc2c1-c1ccccc1F
11,159 to 160,CC1(C)CCC(C)(C)c2cc(C#CCc3ccc(C(=O)O)cc3)ccc21
12,159 to 160,COc1cccc(-c2nc3c4ccccc4ccn3n2)c1
13,140 to 144,O=C(C[C@H](NC(=O)C(F)(F)F)C(=O)O)c1ccc2oc3ccccc3c2c1
14,314,CC(=O)Nc1ccc(-c2cn(-c3nc(-c4ccc(C(F)(F)F)cc4)cc(C(F)(F)F)n3)cn2)cn1
15,122 to 124,COc1ccc(C2=NN(c3ccccc3)C(=O)[C@H]3CCCC[C@@H]23)cc1OC (relative stereo)
16,189 to 191,N#Cc1ccc(CN2C(=O)c3ccccc3C2=O)cc1
17,166 to 168,CCC(CC)N(Cc1ccc(S(C)(=O)=O)cc1)S(=O)(=O)c1ccc(Cl)cc1
18,195 to 196,COc1ccc(-c2cc3cc(F)c(F)cc3[nH]2)cc1NCc1ccc(O)c([N+](=O)[O-])c1
19,233 to 236,CNc1nc(NCc2ccc(NC(=O)c3ccc(Cl)nc3)cc2)c2c(C)cccc2n1
20,89 to 93,CCc1nc2c(cnn2CC)c(NC2CCOCC2)c1CNC(=O)c1cc(C)cc(C(=O)OC)c1
21,197 to 199,Cc1cccc(C)c1NC(=S)N1CC(Oc2cccc(C(F)(F)F)c2)C1
22,138 to 139,Clc1ccc(C(c2ccccc2)c2c(Cl)ncnc2Cl)c(Cl)c1 (stereo not drawn)

row,melting point [°C],SMILES
1,178 to 180,Cc1cc(C)cc(-c2cnn3c(-c4cccc(NC(=O)CC(C)C)c4)ccnc23)c1
2,99 to 111,CC(C)OC(=O)Cn1c(=O)n(C)c(=O)n(-c2cc(N=c3sc(=O)n4n3CCC=C4)c(F)cc2Cl)c1=O
3,204 to 207,Cc1c(-c2ccccc2)nc2cc(Cl)ccc2c1C(=O)N[C@@H](C)C1CCCCC1
4,188 to 189,Cc1ccc(-c2ccccc2C(=O)O)cc1C(=O)NCC1CCCCCC1
5,218 to 221,COc1ccc(Cn2nc(-c3ccc(C(=O)N4Cc5cccnc5Nc5ccccc54)c(Cl)c3)nc2C)cc1
6,135 to 137,CC(C)(C)OC(=O)NC[C@H]1CN(c2ccc3c(c2)CN(C(=O)OCc2ccccc2)CC3)C(=O)O1
7,126 to 127,Clc1cc(CCc2ccccn2)c2oc(-c3ccsc3)nc2c1
8,185,Cc1ccc(C(=O)C2=C(O)C(=O)N(c3ccc(C)nn3)C2c2ccc(N3CCN(CCN(C)C)CC3)cc2)cc1 (stereo not drawn)
9,164 to 166,CC(=O)c1cn(S(=O)(=O)c2ccccc2)c2nccc(OCc3ccccc3)c12
10,140 to 142,CCc1cccc2c3c([nH]c12)C(CC)(CC(=O)O)CCC3c1ccccc1 (stereo not drawn)
11,145 to 147,COc1cc(OC)nc(-c2c(C)[nH]c3c(C)cccc23)n1
12,105 to 111,Cc1nc(-c2ccc(C#N)cc2)sc1C(=O)N[C@H](C)[C@](O)(Cn1cncn1)c1ccc(C(F)(F)F)cc1 (relative stereo)
13,236 to 238,CC1CN(c2n[nH]c(-c3ccc(Cl)cc3)c2-c2ccncc2)CC(C)N1 (stereo not drawn)
14,148 to 152,COC(=O)c1coc(CN2C(=O)C3(COc4cc5onc(C)c5cc43)c3ccccc32)n1 (stereo not drawn)
15,> 300,CCOC(=O)c1cnc2c3cc(NC(=O)Nc4ccccc4)ccc3c(C)cn2c1=O
16,95 to 98,COc1ccc(CNC(=O)[C@@H](NC(=O)[C@H](NCc2cccc3ccccc23)[C@H](O)[C@H](Cc2ccccc2)NC(=O)OC(C)(C)C)C(C)C)c(O)c1
17,203,c1ccc(OCCNc2nc(Nc3cc(C4CC4)n[nH]3)c3ccccc3n2)cc1
18,110 to 112,COC(=O)c1ccc(CN2C(=O)C(CCOc3ccc(CCNC(=O)OC(C)(C)C)cc3)Oc3ccccc32)cc1 (stereo not drawn)
19,124 to 125,Cn1c(C(F)(F)F)cc(=O)n(-c2cc([N+](=O)[O-])c(Br)cc2F)c1=O
20,196 to 198,COc1ccc(C)cc1NC(=O)Nc1ccc2c(c1)CCN(C(=O)Oc1ccc(C(=O)O)cc1Cl)C2
21,124 to 125,COc1cc(C=CC(=O)c2ccc(I)cc2O)cc(OC)c1OCc1ccccc1
